The values that follow come from PubChem BioAssay (NCI).

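Cells were grown in 96-well plates and exposed to each compound for 48 hours at five concentrations; endpoints were interpolated linearly between bracketing concentrations, or set to the highest concentration if not reached. Here, GI50 denotes the concentration required for 50% inhibition of growth. TGI: concentration producing complete growth inhibition.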

Assay in all cases: DTP human tumour cell line panel, 48 h
The subject of test [1] is EKVX NSCLC.
Test [2] relates to HT29 colon.
Test [3] concerns K-562 leukemia.
The test system of test [4] is NCI-H522 lung.
For test [5], the system named is NCI/ADR-RES ovarian.
In test [6] the test system is OVCAR-4 ovarian.
In test [7] the test system is SK-MEL-5 melanoma.
In test [8] the test system is TK-10 renal.
The subject of test [9] is UACC-257 melanoma.
Test [10] deals with UACC-62 melanoma.

A word on the GI50: it is the concentration giving 50% growth inhibition. As a reminder, the TGI is the concentration giving total growth inhibition. The low end stands for greater sensitivity of the cells, the high end for lower sensitivity of the cells.

Turning to `CCC(C(=O)[C@@H](C)[C@@H](O)[C@H](C)[C@@H]1O[C@@H]([C@@H](CC)C(=O)ONC(=O)c2ccccc2)CC[C@@H]1C)[C@H]1O[C@]2(C=CC(=O)[C@]3(CC[C@@](C)([C@H]4CC[C@](O)(CC)[C@H](C)O4)O3)O2)[C@H](C)C[C@@H]1C` (stereo not given in full), the GI50 is 0.548 µM in [1]; 0.387 µM in test [2]; 0.171 µM in [3]; 0.0547 µM in [4]; 0.374 µM in test [5]; 1.07 µM in test [6]. Also, the concentration for 50% growth inhibition (GI50) was 0.105 µM in test [7], 1.1 µM in test [8], 0.255 µM in [9] and 1.25 µM in test [10]. The TGI in [1] is 2.65 µM; in test [2], 2.1 µM; in test [3], 1.79 µM; in test [4], 1.4 µM; in test [5] it was 2.28 µM; in [6], greater than 40.1 µM. For the same compound, the concentration for total growth inhibition (TGI) came to 0.361 µM in test [7], 2.44 µM in test [8], 5.61 µM in test [9] and 2.93 µM in [10].
In the case of `CCCCC[C@H]1C/C=C2/C(=O)C(Cl)=C[C@@H]2C/C=C\CCCC(=O)O1`, the GI50 in test [1] is 0.56 µM; in test [2], 0.461 µM; in [3] it was 0.116 µM; in [4] it was 0.335 µM; in test [5] it was 0.317 µM; in test [6], 0.735 µM. In addition, the GI50 is 0.437 µM in test [7], 0.612 µM in test [8], 0.513 µM in test [9] and 0.411 µM in test [10]. Besides, the concentration for total growth inhibition (TGI) in [1] is 1.37 µM; in test [2], 2.26 µM; in test [3], 3.6 µM; in test [4], 0.755 µM; in test [5], 1.64 µM; in [6] it was 3.83 µM. In addition, the total growth inhibition concentration (TGI) in test [7] was 0.812 µM; in [8], 1.17 µM; in [9] it was 1.41 µM; in test [10] it was 1 µM.
Turning to `CCN(CC)CCCNc1cc(OC)c(OC)c2cccnc12`, the GI50 was 16.4 µM in [1]; 13.4 µM in test [2]; 5.22 µM in test [3]; 2.38 µM in [4]; 15.6 µM in test [5]; 1.68 µM in test [6]. For the same compound, the GI50 in test [7] is 5.67 µM; in [8] it was 23 µM; in test [9], 4.55 µM; in [10] it was 3.16 µM. Also, the TGI in test [1] was 54.8 µM; in test [2] it was 40.3 µM; in test [3], greater than 100 µM; in [4], 10.5 µM; in test [5], 49 µM; in test [6], 3.18 µM. Besides, the total growth inhibition concentration (TGI) is 19.9 µM in test [7], 50.1 µM in [8], 22.4 µM in test [9] and 28.7 µM in test [10].
With `CC(=N\O)/C(C)=N/O.CC(=N\O)/C(C)=N/O.[Fe].[NH2-].c1c[nH]cn1`, the GI50 in test [1], in test [2], in test [3], in test [4], in [5] and in test [6] was greater than 100 µM in each case. Moreover, the GI50 in [7], in [8], in test [9] and in [10] was greater than 100 µM each time. Besides, the concentration for total growth inhibition (TGI) in test [1], in [2], in test [3], in test [4], in test [5] and in [6] was greater than 100 µM each time. For the same compound, the TGI in test [7], in test [8], in [9] and in test [10] was greater than 100 µM in each case.
As to `C(=C\c1ccc(OCC2CO2)cc1)/C1=NCOC1` (stereo not given), the GI50 in test [1] is 19.1 µM; in [2] it was 6.73 µM; in [3], 4.23 µM; in test [4] it was 3.13 µM; in test [5] it was 3.86 µM; in test [6] it was 15.4 µM. Besides, the GI50 was 12.6 µM in test [7], 16.2 µM in [8], 6.15 µM in [9] and 12.2 µM in test [10]. Moreover, the total growth inhibition concentration (TGI) in test [1] was 58.4 µM; in test [2], 25.8 µM; in test [3], greater than 100 µM; in test [4] it was 13.1 µM; in test [5] it was 14.9 µM; in test [6], 31.9 µM. Further, the TGI in test [7] amounted to 26.6 µM; in test [8] it was 39.2 µM; in test [9], 26.6 µM; in test [10], 26.5 µM.
With `c1ccc2c(c1)[nH]c1c3ccccc3sc21`, the TGI in test [1], in [2], in [3], in test [4], in test [5] and in test [6] was greater than 100 µM throughout. In addition, the TGI in test [7], in [8], in [9] and in test [10] was greater than 100 µM throughout.
On to `OCC1OC(n2cnc3c(NCc4ccco4)ncnc32)C(O)C1O` (stereo not given), for which the GI50 was 4.73 µM in test [1]; 2.1 µM in test [2]; 4.47 µM in test [3]; 1.34 µM in [4]; 0.675 µM in test [5]; 2.8 µM in test [6]. For the same compound, the GI50 in test [7] was 9.36 µM; in [8], 3.18 µM; in [9], 52.5 µM; in [10] it was 3.34 µM. In addition, the TGI in [1] was 81.7 µM; in test [2], greater than 38 µM; in test [3] it was greater than 100 µM; in test [4], 22 µM; in test [5] it was greater than 35.7 µM; in [6] it was 18.8 µM. Moreover, the total growth inhibition concentration (TGI) is greater than 74.1 µM in [7], greater than 63.7 µM in test [8], greater than 100 µM in test [9] and 29.7 µM in test [10].
In the case of `O=c1[nH]c2ccccc2n1C1CCN(CCOc2ccccc2)CC1`, the GI50 was 7.05 µM in [1]; 35.8 µM in test [2]; 6.85 µM in test [3]; 56.9 µM in test [4]; 11.5 µM in [5]; 5.86 µM in test [6]. In addition, the GI50 in test [7] was 16 µM; in test [8], 86.2 µM; in [9], 70.7 µM; in test [10], 50.5 µM. Further, the concentration for total growth inhibition (TGI) was 58.4 µM in test [1]; greater than 100 µM in test [2]; greater than 100 µM in test [3]; greater than 100 µM in [4]; greater than 100 µM in test [5]; greater than 100 µM in test [6]. Moreover, the TGI in test [7] was 42 µM; in [8] it was greater than 100 µM; in test [9], greater than 100 µM; in [10] it was greater than 100 µM.
As for `Nc1ncnc2c1ncn2CCCCC(=O)O`, the TGI in test [1], in test [2], in test [3], in [4], in test [5] and in test [6] was greater than 100 µM in each case. For the same compound, the TGI in test [7], in test [8], in [9] and in test [10] was greater than 100 µM throughout.
